This passage reports IC50 results from patent US11021481B2, “Substituted isoindolin-1-ones and 2,3-dihydro-1h-pyrrolo[3,4-c]pyridin-1-ones as HPK1 antagonists” (Nimbus Saturn, Inc., priority 2019, dated 2021).

Sequence of HPK1 (Q92918 whole entry): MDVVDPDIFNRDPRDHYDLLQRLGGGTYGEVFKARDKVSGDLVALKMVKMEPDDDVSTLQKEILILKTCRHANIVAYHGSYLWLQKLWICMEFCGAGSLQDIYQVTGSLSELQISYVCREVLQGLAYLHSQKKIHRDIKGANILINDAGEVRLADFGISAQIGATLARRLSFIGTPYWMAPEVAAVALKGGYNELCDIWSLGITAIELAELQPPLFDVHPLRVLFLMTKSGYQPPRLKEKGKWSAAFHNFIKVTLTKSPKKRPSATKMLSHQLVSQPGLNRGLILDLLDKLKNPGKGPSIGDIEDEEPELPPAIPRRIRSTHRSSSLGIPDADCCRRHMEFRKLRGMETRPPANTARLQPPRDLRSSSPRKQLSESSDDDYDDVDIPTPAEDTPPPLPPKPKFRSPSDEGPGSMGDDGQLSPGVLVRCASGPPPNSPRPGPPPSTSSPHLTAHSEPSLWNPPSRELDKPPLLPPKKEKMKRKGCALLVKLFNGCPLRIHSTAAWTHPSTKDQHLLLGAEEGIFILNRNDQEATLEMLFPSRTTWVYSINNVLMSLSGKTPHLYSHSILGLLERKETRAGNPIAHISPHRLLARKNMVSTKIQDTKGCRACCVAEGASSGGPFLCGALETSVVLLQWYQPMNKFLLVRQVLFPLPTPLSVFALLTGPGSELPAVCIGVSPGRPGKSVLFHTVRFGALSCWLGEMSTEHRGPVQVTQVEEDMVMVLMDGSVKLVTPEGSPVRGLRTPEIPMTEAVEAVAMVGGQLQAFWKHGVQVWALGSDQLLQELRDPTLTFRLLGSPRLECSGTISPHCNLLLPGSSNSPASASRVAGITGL

The assay concerns the target HPK1 (Homo sapiens (Human), UniProt Q92918). The assay is described as follows: HPK1 biochemical enzyme assay (microfluidic mobility shift assay). As to conditions: 1.5 nM HPK1, ATP 1 mM final, 30 min preincubation, 60 min at RT, Caliper EZ Reader; read-out: HPK1 1000UMATP caliper IC50. The gist of the method: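 Mobility shift readout of HPK1 activity after a 60 min RT reaction with 1 mM ATP, 1 μM substrate and 5 mM MgCl2. Enzyme/substrate mix was first exposed to compounds for 30 min, using ten-point curves topping at 3 μM final.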
With `Cc1ccn2c(-c3ccc(Nc4ccc(C5CCOC5)cn4)c4c3CNC4=O)cnc2c1` (centres unmarked) [I-155], the IC50 was less than 100 nM. With `O=C1NCc2c(-c3cnc4c(F)cccn34)ccc(Nc3ccc(N4CCOCC4)cn3)c21` [I-156, 4-(8-fluoroimidazo [1,2-a]pyridin-3-yl)-7-[(5-morpholino-2-pyridyl)amino] isoindolin-1-one], the IC50 is less than 100 nM. The result for `O=C1NCc2c(-c3cnn4cccnc34)ccc(Nc3ccc(N4CCC(O)CC4)cn3)c21` [I-157, 7-[[5-(4-hydroxy-1-piperidyl)-2-pyridyl]amino]-4-pyrazolo[1,5-a]pyrimidin-3-yl-isoindolin-1-one] reads less than 100 nM; that for `Cc1nccn2c(-c3ccc(Nc4ccc(N5CCC(O)CC5)cn4)c4c3CNC4=O)cnc12` [I-158, 7-[[5-(4-hydroxy-1-piperidyl)-2-pyridyl]amino]-4-(8-methylimidazo [1,2-a]pyrazin-3-yl)isoindolin-1-one], less than 100 nM; that for `O=C1NCc2c(-c3cnc4cc(F)ccn34)ccc(Nc3ccc(N4CCOCC4)cn3)c21` [I-159, 4-(7-fluoroimidazo [1,2-a]pyridin-3-yl)-7-[(5-morpholino-2-pyridyl)amino] isoindolin-1-one], less than 100 nM.

Turning to `O=C1NCc2c(-c3cnc4ccccn34)ncc(Nc3ccc(N4CCC(O)CC4)cn3)c21` [I-160, 7-[[5-(4-hydroxy-1-piperidyl)-2-pyridyl]amino]-4-imidazo[1,2-a]pyridin-3-yl-2,3-dihydropyrrolo [3,4-c]pyridin-1-one], the IC50 is less than 100 nM. The result for `Cn1ccc2c(-c3ccc(Nc4ccc(N5CCC(O)CC5)cn4)c4c3CNC4=O)cccc21` [I-161, 7-[[5-(4-hydroxy-1-piperidyl)-2-pyridyl]amino]-4-(1-methylindol-4-yl)isoindolin-1-one] reads less than 100 nM; that for `O=C1NCc2c(-c3cnc4cccnn34)ccc(Nc3ccc(N4CCC(O)CC4)cn3)c21` [I-162, 7-[[5-(4-hydroxy-1-piperidyl)-2-pyridyl]amino]-4-imidazo[1,2-b]pyridazin-3-yl-isoindolin-1-one], less than 100 nM; that for `Cc1ccn2c(-c3ncc(Nc4ccc(N5CCOCC5)cn4)c4c3CNC4=O)cnc2c1` [I-163], 100 to 1000 nM. Take `COc1ccn2c(-c3ccc(Nc4ccc(N5CCC(O)CC5)cn4)c4c3CNC4=O)cnc2c1` [I-164, 7-[[5-(4-hydroxy-1-piperidyl)-2-pyridyl]amino]-4-(7-methoxylmidazo[1,2-a]pyridin-3-yl)isoindolin-1-one]: the IC50 is less than 100 nM.

Take `Cc1cnn2c(-c3ccc(Nc4ccc(N5CCC(O)CC5)cn4)c4c3CNC4=O)ccnc12` [I-165, 7-[[5-(4-hydroxy-1-piperidxl)-2-pyridyl]amino]-4-(3-methylpyra-zolo[1,5-a]pyrimidin-7-yl)isoindolin-1-one]: the IC50 is more than 1000 nM. Regarding `COc1cccn2c(-c3ccc(Nc4ccc(N5CCC(O)CC5)cn4)c4c3CNC4=O)cnc12` [I-166, 7-[[5-(4-hydroxy-1-piperidyl)-2-pyridyl]amino]-4-(8-methoxy-imidazo[1,2-a]pyridin-3-yl)isoindolin-1-one], the IC50 is less than 100 nM.

Consider `O=C1NCc2c(-c3cnc4cc(F)ccn34)ncc(Nc3ccc(N4CCC(O)CC4)cn3)c21` [I-167, 4-(7-fluoroimidazo [1,2-a]pyridin-3-yl)-7-[[5-(4-hydroxy-1-piperidyl)-2-pyridyl]amino]-2,3-dihydropyrrolo [3,4-c]pyridin-1-one], for which the IC50 is less than 100 nM. In the case of `Cn1ccn2c(-c3ccc(Nc4ccc(N5CCC(O)CC5)cn4)c4c3CNC4=O)cnc2c1=O` [I-168, 3-[7-[[5-(4-hydroxy-1-piperidyl)-2-pyridyl]amino]-1-oxo-isoindolin-4-yl]-7-methyl-imidazo[1,2-a]pyrazin-8-one], the IC50 is less than 100 nM.

In the case of `O=C1NCc2c(-c3cnc4cnccn34)ccc(Nc3ccc(N4CCC[C@H](O)C4)cn3)c21` [I-169, 7-[[5-[(3S)-3-hydroxy-1-piperipyl]-2-pyridyl]amino]-4-imidazol[1,2-a]pyrazin-3-yl-isoindolin-1-one], the IC50 is less than 100 nM. With `Cc1ccn2c(-c3ccc(Nc4ccc(N5CCC[C@H](O)C5)cn4)c4c3CNC4=O)cnc2c1` [I-170, 7-[[5-[(3S)-3-hydroxy-1-piperidyl]-2-pyridyl]amino]-4-(7-methylimidazo [1,2-a]pyridin-3-yl)isoindolin-1-one], the half-maximal inhibitory concentration (IC50) was less than 100 nM. Turning to `O=C1NCc2c(-c3cnc4cnccn34)ccc(Nc3ccc(N4CCC[C@@H](O)C4)cn3)c21` [I-171], the IC50 is less than 100 nM. The result for `Cc1ccn2c(-c3ccc(Nc4ccc(N5CCC[C@@H](O)C5)cn4)c4c3CNC4=O)cnc2c1` [I-172, 7-[[5-[(3R)-3-hydroxy-1-piperipyl]-2-pyridyl]amino]-4-(7-methylimidazo [1,2-a]pyridin-3-yl)isoindolin-1-one] reads less than 100 nM. In the case of `Cn1cnc2c(-c3ccc(Nc4ccc(N5CCC(O)CC5)cn4)c4c3CNC4=O)cccc21` [I-173, 7-[[5-(4-hydroxy-1-piperidyl)-2-pyridyl]amino]-4-(1-methylbenz-imidazol-4-yl)isoindolin-1-one], the IC50 was less than 100 nM. Consider `O=C1NCc2c(-c3cnc4cc(F)ccn34)ccc(Nc3ccc(N4CCC[C@@H](O)C4)cn3)c21` [I-174, 4-(7-fluoroimidazo [1,2-a]pyridin-3-yl)-7-[[5-[(3R)-3-hydroxy-1-piperipyl]-2-pyripyl]amino] isoindolin-1-one], for which the IC50 is less than 100 nM. For `O=C1NCc2c(-c3cnc4cc(F)ccn34)ccc(Nc3ccc(N4CCC[C@H](O)C4)cn3)c21` [I-175, 4-(7-fluoroimidazo [1,2-a]pyridin-3-yl)-7-[[5-[(3S)-3-hydroxy-1-piperidyl]-2-pyridyl]amino] isoindolin-1-one], the IC50 was less than 100 nM. For the molecule `Cc1ccn2c(-c3ccc(Nc4ccc(N5CCC(O)CC5)cn4)c4c3CNC4=O)cnc2c1C` [I-176, 4-(7,8-dimethylimi-dazo[1,2-a]pyridin-3-yl)-7-[[5-(4-hydroxy-1-piperidyl)-2-pyridyl]amino] isoindolin-1-one], the IC50 was less than 100 nM. On to `Cn1ccc2c(-c3ncc(Nc4ccc(N5CCC[C@@H](O)C5)cn4)c4c3CNC4=O)ccnc21` [I-178, 7-[[5-[(3R)-3-hydroxy-1-piperidyl]-2-pyridyl]amino]-4-(1-methylpyrrolo [2,3-b]pyridin-4-yl)-2,3-dihydropyrrolo [3,4-c]pyridin-1-one], for which the IC50 is less than 100 nM. For `Cn1ccc2c(-c3ncc(Nc4ccc(N5CCC[C@H](O)C5)cn4)c4c3CNC4=O)ccnc21` [I-179, 7-[[5-[(3S)-3-hydroxy-1-piperidyl]-2-pyridyl]amino]-4-(1-methylpyrrolo [2,3-b]pyridin-4-yl)-2,3-dihydropyrrolo [3,4-c]pyridin-1-one], the IC50 is less than 100 nM.

Consider `Cc1ncc2c(-c3ccc(Nc4ccc(N5CCC(O)CC5)cn4)c4c3CNC4=O)cccn12` [I-180, 7-[[5-(4-hydroxy-1-piperidyl)-2-pyridyl]amino]-4-(3-methyliminidazo [1.5-a]pyridin-8-yl)isoindolin-1-one], for which the IC50 was 100 to 1000 nM. Regarding `O=C1NCc2c(-c3cnc4cc(C5CC5)ccn34)ccc(Nc3ccc(N4CCC(O)CC4)cn3)c21` [I-181, 4-(7-cyclopropyl-imidazo[1,2-a]pyridin-3-yl)-7-[[5-(4-hydroxy-1-piperidyl)-2-pyridyl]amino] isoindolin-1-one], the IC50 was less than 100 nM.

For orientation: IC50 means the concentration that inhibits the measured activity by half.
